From patent EP4566614A1, “DRY EYE REMEDY CONTAINING DNA OLIGONUCLEOTIDE […] BINDING TO IFN-y” (TAGCyx Biotechnologies Inc., priority 2022, dated 2024)

Molecular target: T1, IFN-y (Homo sapiens, UniProt P01579)
T1 sequence (P01579 24-166): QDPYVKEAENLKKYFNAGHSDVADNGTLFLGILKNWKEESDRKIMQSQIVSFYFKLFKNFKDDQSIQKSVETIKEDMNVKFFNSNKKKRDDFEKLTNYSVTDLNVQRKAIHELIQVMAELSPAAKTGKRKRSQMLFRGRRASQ
Test: Binding of PEG-modified form to IFN-y by SPR (Surface Plasmon Resonance)
Settings: PEG (40000) on base X
Text: With the base of X produced in Example 2, Aptamer 3 (1 eq) having a primary amine side chain and commercially available NHS-PEG (40000) (1.5 eq) were mixed in a phosphate buffer at pH 7 to 8 and the mixture was stirred for 1 day at room temperature. The reaction solution was concentrated and the resulting modified form was purified by reversed phase HPLC to obtain a PEG-modified form of Aptamer 3.

PEG-modified form of Aptamer 3: Aptamer 3 having a primary amine side chain at X reacted with NHS-PEG (40000) (CCCGCCCGGGTCCGCGAAGCGGTAGGTNTGGGCTAGGCNGCTGGCGGGCGCGNAGCG; DNA aptamer, amine side-chain residue X conjugated to 40 kDa PEG, further chemistry not given here)
ability to bind to IFN-y: retained its ability to bind to IFN-y | ability to bind to IFN-y (listed as PEG-modified form of a DNA aptamer having the sequence of SEQ ID NO: 3): capable of binding to IFN-γ
